Measurements taken from the NIST ThermoML archive (doi:10.1021/acs.jced.8b00684).
± gives the expanded uncertainty stated by the source.

Assay: xn = mol fraction of the nth substance listed
Conditions: 100 kPa, Liquid, Falling or rolling sphere viscometry

CCCCCCn1cc[n+](C)c1.F[B-](F)(F)F [1-hexyl-3-methylimidazolium tetrafluoroborate] + CC#N
viscosity [mPa·s]
Conditions | x1 = 0.104 | x1 = 0.2049 | x1 = 0.2948 | x1 = 0.4066 | x1 = 0.4616 | x1 = 0.5697 | x1 = 0.6626 | x1 = 0.8083 | x1 = 0.9044 | x1 = 1
293.15 K | 1.15 ± 0.05 | 2.43 ± 0.1 | 4.79 ± 0.2 | 10.5 ± 0.4 | 14.9 ± 0.6 | 29.1 ± 1.2 | 50 ± 2 | 112 ± 5 | 184 ± 10 | 293 ± 20
298.15 K | 1.05 ± 0.04 | 2.26 ± 0.09 | 4.32 ± 0.18 | 9.04 ± 0.37 | 12.7 ± 0.5 | 24 ± 1 | 40.3 ± 1.6 | 86.4 ± 3.8 | 139 ± 7 | 216 ± 13
303.15 K | 0.99 ± 0.04 | 2.08 ± 0.09 | 3.89 ± 0.16 | 7.92 ± 0.32 | 11 ± 0.5 | 20.1 ± 0.8 | 32.8 ± 1.3 | 67.7 ± 2.8 | 106 ± 5 | 163 ± 9
313.15 K | 0.87 ± 0.04 | 1.79 ± 0.07 | 3.21 ± 0.13 | 6.19 ± 0.25 | 8.36 ± 0.34 | 14.6 ± 0.6 | 22.8 ± 0.9 | 43.9 ± 1.8 | 65.9 ± 2.7 | 96.7 ± 4.3
323.15 K | 0.78 ± 0.03 | 1.56 ± 0.06 | 2.69 ± 0.11 | 4.98 ± 0.2 | 6.58 ± 0.27 | 11 ± 0.5 | 16.6 ± 0.7 | 30.1 ± 1.2 | 43.5 ± 1.8 | 61.8 ± 2.5
333.15 K | 0.71 ± 0.03 | 1.37 ± 0.06 | 2.3 ± 0.09 | 4.1 ± 0.17 | 5.32 ± 0.22 | 8.58 ± 0.35 | 12.5 ± 0.5 | 21.7 ± 0.9 | 30.4 ± 1.2 | 41.9 ± 1.7
343.15 K | 0.65 ± 0.03 | 1.22 ± 0.05 | 1.99 ± 0.08 | 3.43 ± 0.14 | 4.38 ± 0.18 | 6.85 ± 0.28 | 9.75 ± 0.4 | 16.2 ± 0.7 | 22.1 ± 0.9 | 29.5 ± 1.2

CCCCCCn1cc[n+](C)c1.F[B-](F)(F)F [1-hexyl-3-methylimidazolium tetrafluoroborate] + C[S+](C)[O-]
viscosity [mPa·s]
Conditions | 293.15 K | 298.15 K | 303.15 K | 313.15 K | 323.15 K | 333.15 K | 343.15 K | 353.15 K
x1 = 0.116 | 4.93 ± 0.2 | 4.18 ± 0.17 | 3.7 ± 0.15 | 2.96 ± 0.12 | 2.43 ± 0.1 | 1.94 ± 0.08 | 1.68 ± 0.07 | 1.37 ± 0.06
x1 = 0.2495 | 11 ± 0.5 | 9.67 ± 0.39 | 8.37 ± 0.34 | 6.47 ± 0.26 | 5.11 ± 0.21 | 4.02 ± 0.16 | 3.14 ± 0.13 | 2.77 ± 0.11
x1 = 0.2831 | 13.7 ± 0.6 | 11.8 ± 0.5 | 10.1 ± 0.4 | 7.71 ± 0.31 | 6.01 ± 0.24 | 4.74 ± 0.19 | 3.68 ± 0.15 | 3.21 ± 0.13
x1 = 0.3857 | 25 ± 1 | 20.6 ± 0.8 | 17.1 ± 0.7 | 12.4 ± 0.5 | 9.35 ± 0.38 | 7.28 ± 0.3 | 5.75 ± 0.23 | 4.72 ± 0.19
x1 = 0.5036 | 44.2 ± 1.8 | 34.9 ± 1.4 | 28.4 ± 1.2 | 19.6 ± 0.8 | 14.3 ± 0.6 | 10.8 ± 0.4 | 8.72 ± 0.35 | 6.7 ± 0.27
x1 = 0.5714 | 58.4 ± 2.4 | 45.6 ± 1.9 | 36.6 ± 1.5 | 24.8 ± 1 | 17.7 ± 0.7 | 13.2 ± 0.5 | 10.6 ± 0.4 | 7.99 ± 0.33
x1 = 0.6702 | 84.8 ± 3.7 | 65.6 ± 2.7 | 51.8 ± 2.1 | 34.1 ± 1.4 | 23.7 ± 1 | 17.2 ± 0.7 | 13.5 ± 0.6 | 10.2 ± 0.4
x1 = 0.7517 | 114 ± 5 | 87.6 ± 3.8 | 68.4 ± 2.8 | 44 ± 1.8 | 30 ± 1.2 | 21.4 ± 0.9 | 16.2 ± 0.7 | 12.3 ± 0.5
x1 = 0.7883 | 130 ± 6 | 99.7 ± 4.5 | 77.5 ± 3.3 | 49.2 ± 2 | 33.3 ± 1.4 | 23.6 ± 1 | 17.6 ± 0.7 | 13.4 ± 0.5
x1 = 0.8976 | 196 ± 11 | 148 ± 8 | 113 ± 5 | 69.4 ± 2.9 | 45.6 ± 1.9 | 31.6 ± 1.3 | 22.5 ± 0.9 | 17.2 ± 0.7
x1 = 1 | 293 ± 20 | 216 ± 13 | 163 ± 9 | 96.7 ± 4.3 | 61.8 ± 2.5 | 41.9 ± 1.7 | 29.5 ± 1.2 | 21.7 ± 0.9
